# Source: US20090269409A1, “PHARMACEUTICAL COMPOSITIONS COMPRISING ESZOPICLONE” (priority 2008, published 2009)
# Like-named read-outs stand apart in the source and are kept apart here.
# Experiments:
# [1] = Observed susceptibility of eszopiclone to degradation; format: physicochemical; details: with significant increase in the 5-chloro-2-aminopyridine content
# [2] = Excipient compatibility and stability study of eszopiclone/excipient mixtures (impurity analysis before and after storage); format: physicochemical
# Procedure: 1) Eszopiclone and excipient in the stated ratios were mixed well and sifted through an ASTM #40 mesh sieve.
# 2) The mixture was placed into 20 mL amber glass vials and stored under conditions of 40° C. and 75% relative humidity (RH), or at 50° C., for 1 month. Impurity analyses were performed before and after storage, and values in the table below are percentages of the initial eszopiclone content.
# [3] = Saturated solubility of eszopiclone in various solvents (shake flask, HPLC); format: physicochemical; details: thermodynamic from solid, room temperature
# Procedure: 1) 100 mL of the solvent was placed into a 250 mL volumetric flask.
# 2) 10 mg of eszopiclone was added to the flask.
# 3) The flask contents were mixed for 24 hours using a rotary shaker to dissolve the eszopiclone completely.
# 4) Eszopiclone was added at room temperature to the clear solution of 3) in small amounts (up to about 100 mg) until undissolved eszopiclone was noted after shaking.
# 5) The flask was subjected to shaking for an additional 24 hours.
# 6) Presence of insoluble eszopiclone was checked and the pH of the solution was recorded.
# 7) A portion of step 6) solution was subjected to centrifugation until a clear solution was obtained, and/or was filtered through an ASTM #40 mesh sieve.
# 8) Content of the drug substance was determined using HPLC, comparing with a standard solution prepared preferably in the same solvent.
# 9) Amount of the drug substance dissolved was calculated as a percentage (weight/volume): […]
# The actual amount of drug substance dissolved in mg is:
# The solubility of the drug substance in mg/ml in the solvent medium tested is: S=m÷100.
# Saturated solubility was determined in solvents as described below.
# [4] = cited from earlier work
# [5] = 1 Month, 40° C./75% RH, amber glass vials
# [6] = 1 Month, 50° C., amber glass vials
compound,measurement,setting,value
"CN1CCN(C(=O)O[C@H]2c3nccnc3C(=O)N2c2ccc(Cl)cn2)CC1 [Eszopiclone, (+)-(5S)-6-(5-chloropyridin-2-yl)-7-oxo-6,7-dihydro-[3,4-b]pyrazin-5-yl-4-methylpiperazine-1-carboxylate]",Susceptibility to oxidative degradation (including by atmospheric oxygen) and acid hydrolysis,[1],highly susceptible
same,Imp (5-chloro-2-aminopyridine),[2]; [5],0.47 percentages of the initial eszopiclone content
same,T.I. (Total impurities),[2]; [5],0.33 percentages of the initial eszopiclone content
same,Imp (5-chloro-2-aminopyridine),[2]; [6],0.35 percentages of the initial eszopiclone content
same,T.I. (Total impurities),[2]; [6],0.5 percentages of the initial eszopiclone content
same,Imp (5-chloro-2-aminopyridine),[2]; Initial,0.01 percentages of the initial eszopiclone content
same,T.I. (Total impurities),[2]; Initial,0.02 percentages of the initial eszopiclone content
same,solubility at 24 h,"[3]; aqueous buffer, Acetate buffer (pH 4.5)",11600 µg/mL
same,solubility at 24 h,"[3]; aqueous buffer, Phosphate buffer (pH 6.8)",680 µg/mL
same,solubility at 24 h,"[3]; aqueous buffer, Phosphate buffer (pH 7.5)",330 µg/mL
same,solubility at 24 h,"[3]; aqueous with cosolvent or surfactant or cyclodextrin, 0.5% Sodium lauryl sulphate in water",1830 µg/mL
same,solubility at 24 h,"[3]; simulated gastric fluid, 0.01N HCl",4180 µg/mL
same,solubility at 24 h,"[3]; simulated gastric fluid, 0.1N Hydrochloric acid (pH 1.2)",39100 µg/mL
same,solubility at 24 h,"[3]; simulated gastric fluid, Acid buffer (pH 1), potassium chloride/HCl",23000 µg/mL
same,solubility at 24 h,[3]; Simulated gastric fluid (pH 1.2),8180 µg/mL
same,solubility at 24 h,[3]; Water,300 µg/mL
same,Solubility (descriptive),[4]; in ethanol,slightly soluble
same,Solubility (descriptive),[4]; in phosphate buffer of pH 3.2,soluble
same,Solubility (descriptive),[4]; in water,very slightly soluble
